Measurements as given in patent US8784633B2, “Automatic positioning and sensing microelectrode arrays” (priority 2007, dated 2014).

Test system: cortical neurons
Assay: Multi-site recording of extracellular spontaneous electrophysiological activity of cortical neuronal networks on APSMEA
Format: cell-based, rat
Description: FIG. 3 is a process flow diagram 300 of a process for controlling movement of target cells into a predetermined location using negative DEP forces. At 302, target cells (e.g., neuronal cells) in suspension are introduced onto a APSMEA device 100. The target cells are prepared according to institutional guidelines for care and use of animals. For example, to obtain neuronal cells, cortical neurons are excised from 18-day rat embryos and dissociated by trituration after digestion with papain (20 U/ml). The neurons are then resuspended in Neurobasal medium with B27 supplement and 500 μM glutamine. The medium initially added to new cultures are also supplemented with 25 μM glutamate and 25 μM β-mercaptoethanol. With four different concentrations, i.e., 1×10^5 cells/ml, 2×10^5 cells/ml, 5×10^5 cells/ml and 1×10^6 cells/ml, neurons are seeded on the APSMEA device 100 after coating with poly-L-lysine (50 μg/ml) and laminin (10 μg/ml).
FIG. 6a-c represent results of multi-site recordings of extracellular spontaneous electrophysiological activities from cortical neuronal networks (14 DIV) for control (no DEP forces applied) and manipulated (with DEP forces applied) cells at the seeding cell concentration of 5×10^5 cells/ml. Multi-site electrophysiological recordings in this and other implementations can be performed with the APSMEA device connected with a commercial multi-channel amplifier and filtering stage (Cyberkinetics, Salt Lake City, Utah). Measurements are carried out in 14 days old cortical cultures at 37° C., allowing the signals from the recording electrodes 122 amplified (×5000), band-pass filtered (250-7500 Hz), and sampled at 30 kHz/channel on 25 channels simultaneously. Using ±3 times of the standard deviation of the noise level as the threshold value for each channel, electrophysiological activities are detected on-line or off-line. NMDA (5 μM) and APV (5 μM) are also applied in the culture medium, and their related electrophysiological activities before and after any drug (e.g., chemical compounds) administration are both recorded for 10 min. […]

[1] = 5 μM in culture medium, cortical neurons 14 DIV, 10 min recording, n=4 separate APSMEAs

N[C@@H](CCCP(=O)(O)O)C(=O)O [APV]
electrical activity level (sum of spikes over all active sites) compared with no drug added control [1]: 7.8±7.5 % of control

CN[C@H](CC(=O)O)C(=O)O [NMDA]
induced activity level relative to controls [1]: increase three times more than that of controls

TTX
effect on recorded extracellular action potentials (electrical activities): inhibited
